Results taken from the kinase profiling compilation of Christmann-Franck et al. (2016).

Columns and labels:
Experiment in all cases: split-luciferase competition binding
AURKB (human) = AURKB (human) (UniProt Q96GD4); conditions: compound 10.0 µM
PRKCE (human) = PRKCE (human) (UniProt Q02156); conditions: compound 10.0 µM
PRKCD (human) = PRKCD (human) (UniProt Q05655); conditions: compound 10.0 µM
AURKA (human) = AURKA (human) (UniProt O14965); conditions: compound 10.0 µM
STK32B (human) = STK32B (human) (UniProt Q9NY57); conditions: compound 10.0 µM
RPS6KA5 KD1 (human) = RPS6KA5 KD1 (human) (UniProt O75582); conditions: compound 10.0 µM
DMPK (human) = DMPK (human) (UniProt Q09013); conditions: compound 10.0 µM
AKT3 (human) = AKT3 (human) (UniProt Q9Y243); conditions: compound 10.0 µM
AURKC (human) = AURKC (human) (UniProt Q9UQB9); conditions: compound 10.0 µM
PRKX (human) = PRKX (human) (UniProt P51817); conditions: compound 10.0 µM
RPS6KA4 KD1 (human) = RPS6KA4 KD1 (human) (UniProt O75676); conditions: compound 10.0 µM
AKT1 (human) = AKT1 (human) (UniProt P31749); conditions: compound 10.0 µM
RPS6KA6 KD1 (human) = RPS6KA6 KD1 (human) (UniProt Q9UK32); conditions: compound 10.0 µM
RPS6KA3 KD1 (human) = RPS6KA3 KD1 (human) (UniProt P51812); conditions: compound 10.0 µM
SGK2 (human) = SGK2 (human) (UniProt Q9HBY8); conditions: compound 10.0 µM
PKN1 (human) = PKN1 (human) (UniProt Q16512); conditions: compound 10.0 µM
RPS6KA2 KD1 (human) = RPS6KA2 KD1 (human) (UniProt Q15349); conditions: compound 10.0 µM
PRKCH (human) = PRKCH (human) (UniProt P24723); conditions: compound 10.0 µM
PRKACB (human) = PRKACB (human) (UniProt P22694); conditions: compound 10.0 µM
PRKCG (human) = PRKCG (human) (UniProt P05129); conditions: compound 10.0 µM
SGK3 (human) = SGK3 (human) (UniProt Q96BR1); conditions: compound 10.0 µM
PRKCQ (human) = PRKCQ (human) (UniProt Q04759); conditions: compound 10.0 µM
PDPK1 (human) = PDPK1 (human) (UniProt O15530); conditions: compound 10.0 µM
PRKCI (human) = PRKCI (human) (UniProt P41743); conditions: compound 10.0 µM
RPS6KA1 KD1 (human) = RPS6KA1 KD1 (human) (UniProt Q15418); conditions: compound 10.0 µM
AKT2 (human) = AKT2 (human) (UniProt P31751); conditions: compound 10.0 µM
PRKACA (mouse) = conditions: compound 10.0 µM; accession and sequence are those of the human protein

PRKCH (human), sequence (P24723 whole entry, looked up): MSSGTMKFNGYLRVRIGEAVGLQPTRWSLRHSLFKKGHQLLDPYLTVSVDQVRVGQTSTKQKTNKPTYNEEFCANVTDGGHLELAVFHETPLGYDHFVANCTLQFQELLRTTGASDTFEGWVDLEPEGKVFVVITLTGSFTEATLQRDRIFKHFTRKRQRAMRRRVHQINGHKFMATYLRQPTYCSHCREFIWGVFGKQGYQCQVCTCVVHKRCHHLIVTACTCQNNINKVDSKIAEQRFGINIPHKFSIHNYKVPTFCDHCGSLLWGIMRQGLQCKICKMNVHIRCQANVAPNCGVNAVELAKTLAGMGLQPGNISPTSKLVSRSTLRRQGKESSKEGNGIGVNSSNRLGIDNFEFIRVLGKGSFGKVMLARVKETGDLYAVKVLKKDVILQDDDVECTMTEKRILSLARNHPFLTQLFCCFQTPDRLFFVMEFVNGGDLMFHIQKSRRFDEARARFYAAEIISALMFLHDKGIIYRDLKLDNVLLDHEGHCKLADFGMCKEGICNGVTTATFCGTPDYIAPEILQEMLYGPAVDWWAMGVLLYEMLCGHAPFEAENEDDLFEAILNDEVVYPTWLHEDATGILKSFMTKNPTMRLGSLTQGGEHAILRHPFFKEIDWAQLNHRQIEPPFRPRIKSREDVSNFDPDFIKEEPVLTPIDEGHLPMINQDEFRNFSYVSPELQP
STK32B (human), sequence (Q9NY57 whole entry, looked up): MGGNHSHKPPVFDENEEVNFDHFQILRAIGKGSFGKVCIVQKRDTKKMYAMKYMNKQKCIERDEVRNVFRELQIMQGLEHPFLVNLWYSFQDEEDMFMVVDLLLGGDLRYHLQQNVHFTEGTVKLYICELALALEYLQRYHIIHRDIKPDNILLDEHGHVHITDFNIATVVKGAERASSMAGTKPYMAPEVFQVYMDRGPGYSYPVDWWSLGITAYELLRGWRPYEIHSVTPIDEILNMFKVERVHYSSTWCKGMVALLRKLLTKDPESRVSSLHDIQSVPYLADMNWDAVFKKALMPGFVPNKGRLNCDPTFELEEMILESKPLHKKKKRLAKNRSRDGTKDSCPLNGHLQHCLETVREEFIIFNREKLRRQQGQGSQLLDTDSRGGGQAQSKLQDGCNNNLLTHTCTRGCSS
AKT3 (human), sequence (Q9Y243 whole entry, looked up): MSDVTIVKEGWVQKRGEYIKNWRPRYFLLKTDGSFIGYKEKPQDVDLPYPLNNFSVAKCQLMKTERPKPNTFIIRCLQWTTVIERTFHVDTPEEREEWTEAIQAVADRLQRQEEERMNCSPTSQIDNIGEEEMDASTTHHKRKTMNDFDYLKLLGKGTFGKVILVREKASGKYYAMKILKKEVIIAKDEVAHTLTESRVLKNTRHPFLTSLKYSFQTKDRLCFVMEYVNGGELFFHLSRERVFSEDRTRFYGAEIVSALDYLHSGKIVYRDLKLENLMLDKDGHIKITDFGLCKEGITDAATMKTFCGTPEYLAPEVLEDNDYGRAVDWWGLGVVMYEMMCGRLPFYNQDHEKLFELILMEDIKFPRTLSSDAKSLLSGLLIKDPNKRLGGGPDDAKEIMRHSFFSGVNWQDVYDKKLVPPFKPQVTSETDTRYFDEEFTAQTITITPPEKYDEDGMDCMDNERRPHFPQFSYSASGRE
PRKCI (human), sequence (P41743 whole entry, looked up): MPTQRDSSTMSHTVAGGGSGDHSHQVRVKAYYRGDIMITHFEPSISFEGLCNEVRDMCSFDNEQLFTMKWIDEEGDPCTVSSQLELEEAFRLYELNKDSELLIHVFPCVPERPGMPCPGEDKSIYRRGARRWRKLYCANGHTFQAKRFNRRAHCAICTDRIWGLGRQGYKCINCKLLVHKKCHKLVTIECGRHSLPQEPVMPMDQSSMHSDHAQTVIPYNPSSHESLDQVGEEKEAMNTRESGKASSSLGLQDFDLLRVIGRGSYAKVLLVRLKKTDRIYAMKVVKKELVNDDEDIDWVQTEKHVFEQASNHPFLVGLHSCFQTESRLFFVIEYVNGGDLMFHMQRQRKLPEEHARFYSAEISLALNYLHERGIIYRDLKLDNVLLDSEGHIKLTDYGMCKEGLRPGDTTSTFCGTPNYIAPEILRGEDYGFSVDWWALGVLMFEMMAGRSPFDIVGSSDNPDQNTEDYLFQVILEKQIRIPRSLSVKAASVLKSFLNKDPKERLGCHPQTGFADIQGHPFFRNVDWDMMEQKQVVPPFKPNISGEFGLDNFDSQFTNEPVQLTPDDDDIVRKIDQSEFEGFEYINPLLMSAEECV
AURKA (human), sequence (O14965 whole entry, looked up): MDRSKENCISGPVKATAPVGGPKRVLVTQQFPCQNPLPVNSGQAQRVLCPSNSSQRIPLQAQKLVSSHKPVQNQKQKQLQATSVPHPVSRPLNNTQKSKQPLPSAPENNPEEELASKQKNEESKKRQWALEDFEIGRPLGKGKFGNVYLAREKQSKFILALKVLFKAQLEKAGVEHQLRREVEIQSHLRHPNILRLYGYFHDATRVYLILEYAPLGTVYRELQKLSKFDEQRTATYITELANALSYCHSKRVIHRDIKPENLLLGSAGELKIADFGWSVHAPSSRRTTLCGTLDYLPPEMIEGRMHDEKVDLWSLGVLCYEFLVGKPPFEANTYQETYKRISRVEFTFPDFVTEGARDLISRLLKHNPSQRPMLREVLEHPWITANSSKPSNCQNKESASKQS
RPS6KA2 KD1 (human), sequence (Q15349 whole entry, looked up): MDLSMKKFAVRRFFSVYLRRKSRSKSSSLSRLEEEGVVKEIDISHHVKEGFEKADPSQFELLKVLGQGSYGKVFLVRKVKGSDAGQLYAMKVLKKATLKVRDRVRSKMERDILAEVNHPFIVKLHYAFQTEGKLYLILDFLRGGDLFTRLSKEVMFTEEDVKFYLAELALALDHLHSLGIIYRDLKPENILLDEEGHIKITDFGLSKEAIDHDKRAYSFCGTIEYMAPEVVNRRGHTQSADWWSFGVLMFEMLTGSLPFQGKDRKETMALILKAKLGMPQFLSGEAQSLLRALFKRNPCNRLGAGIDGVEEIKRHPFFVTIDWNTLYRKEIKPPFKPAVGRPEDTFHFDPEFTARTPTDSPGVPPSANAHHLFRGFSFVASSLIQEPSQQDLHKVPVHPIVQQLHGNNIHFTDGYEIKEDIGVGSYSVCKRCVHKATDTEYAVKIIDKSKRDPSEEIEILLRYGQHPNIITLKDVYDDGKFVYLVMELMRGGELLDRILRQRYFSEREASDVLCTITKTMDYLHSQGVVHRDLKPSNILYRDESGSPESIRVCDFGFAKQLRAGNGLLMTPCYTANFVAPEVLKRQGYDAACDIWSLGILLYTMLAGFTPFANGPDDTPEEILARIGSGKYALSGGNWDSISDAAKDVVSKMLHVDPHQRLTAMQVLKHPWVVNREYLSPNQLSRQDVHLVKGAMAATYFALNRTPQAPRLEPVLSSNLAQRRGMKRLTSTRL
AKT1 (human), sequence (P31749 whole entry, looked up): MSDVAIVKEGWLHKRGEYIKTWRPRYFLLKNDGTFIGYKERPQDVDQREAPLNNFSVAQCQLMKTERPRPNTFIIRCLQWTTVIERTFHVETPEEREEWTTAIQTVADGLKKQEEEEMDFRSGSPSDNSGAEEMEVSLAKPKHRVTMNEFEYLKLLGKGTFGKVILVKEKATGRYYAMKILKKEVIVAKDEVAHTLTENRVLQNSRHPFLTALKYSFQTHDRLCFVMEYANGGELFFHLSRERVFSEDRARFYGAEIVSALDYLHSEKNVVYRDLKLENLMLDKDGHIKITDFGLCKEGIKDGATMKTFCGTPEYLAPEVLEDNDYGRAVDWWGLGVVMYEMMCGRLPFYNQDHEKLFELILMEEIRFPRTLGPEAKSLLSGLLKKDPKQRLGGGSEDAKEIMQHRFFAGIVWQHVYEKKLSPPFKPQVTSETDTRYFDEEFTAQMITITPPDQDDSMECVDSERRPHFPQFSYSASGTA
RPS6KA4 KD1 (human), sequence (O75676 whole entry, looked up): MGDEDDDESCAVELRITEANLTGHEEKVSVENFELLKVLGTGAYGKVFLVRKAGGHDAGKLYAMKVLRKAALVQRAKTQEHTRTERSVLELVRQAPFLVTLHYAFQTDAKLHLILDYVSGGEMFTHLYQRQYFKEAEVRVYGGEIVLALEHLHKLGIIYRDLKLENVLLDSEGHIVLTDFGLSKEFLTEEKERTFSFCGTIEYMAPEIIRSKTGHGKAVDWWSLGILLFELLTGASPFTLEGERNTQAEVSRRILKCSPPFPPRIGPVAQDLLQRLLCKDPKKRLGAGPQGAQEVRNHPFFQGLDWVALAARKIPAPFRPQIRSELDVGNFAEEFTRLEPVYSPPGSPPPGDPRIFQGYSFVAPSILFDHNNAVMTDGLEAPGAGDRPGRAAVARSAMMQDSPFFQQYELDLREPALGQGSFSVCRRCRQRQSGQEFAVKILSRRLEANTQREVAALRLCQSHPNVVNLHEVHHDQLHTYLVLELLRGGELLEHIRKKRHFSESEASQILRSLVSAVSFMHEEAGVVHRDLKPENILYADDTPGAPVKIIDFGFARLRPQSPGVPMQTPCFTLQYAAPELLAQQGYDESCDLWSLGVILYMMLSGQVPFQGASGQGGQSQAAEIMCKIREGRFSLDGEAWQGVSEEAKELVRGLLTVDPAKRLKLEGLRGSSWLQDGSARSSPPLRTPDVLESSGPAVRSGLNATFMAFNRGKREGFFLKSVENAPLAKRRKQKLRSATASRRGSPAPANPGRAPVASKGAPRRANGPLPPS
SGK2 (human), sequence (Q9HBY8 whole entry, looked up): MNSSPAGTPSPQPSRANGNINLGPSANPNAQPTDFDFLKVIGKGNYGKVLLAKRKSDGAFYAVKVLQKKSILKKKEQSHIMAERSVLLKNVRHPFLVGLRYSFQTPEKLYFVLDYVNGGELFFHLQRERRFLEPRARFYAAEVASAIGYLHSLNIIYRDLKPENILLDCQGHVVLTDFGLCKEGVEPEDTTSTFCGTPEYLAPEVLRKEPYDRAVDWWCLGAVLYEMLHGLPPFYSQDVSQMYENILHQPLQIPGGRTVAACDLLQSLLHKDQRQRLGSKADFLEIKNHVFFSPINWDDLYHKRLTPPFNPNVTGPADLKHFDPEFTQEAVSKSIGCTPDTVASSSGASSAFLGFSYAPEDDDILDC

Row | inhibition (AURKB (human)) | inhibition (PRKCE (human)) | inhibition (PRKCD (human)) | inhibition (AURKA (human)) | inhibition (STK32B (human)) | inhibition (RPS6KA5 KD1 (human)) | inhibition (DMPK (human)) | inhibition (AKT3 (human)) | inhibition (AURKC (human)) | inhibition (PRKX (human)) | inhibition (RPS6KA4 KD1 (human)) | inhibition (AKT1 (human)) | inhibition (RPS6KA6 KD1 (human)) | inhibition (RPS6KA3 KD1 (human)) | inhibition (SGK2 (human)) | inhibition (PKN1 (human)) | inhibition (RPS6KA2 KD1 (human)) | inhibition (PRKCH (human)) | inhibition (PRKACB (human)) | inhibition (PRKCG (human)) | Compound | further results
1 | 0% | 16% | 0% | 0% | 8% | 2% | 0% | 0% | 3% | 4% | 0% | 5% | 4% | 0% | 3% | 0% | 2% | 7% | 7% | 15% | O=C(NC(NC(=S)Nc1ccc(F)c([N+](=O)[O-])c1)C(Cl)(Cl)Cl)C(c1ccccc1)c1ccccc1 (stereo not drawn) | inhibition (SGK3 (human)): 0%; inhibition (PRKCQ (human)): 0%; inhibition (PDPK1 (human)): 0%; inhibition (PRKCI (human)): 0%; inhibition (RPS6KA1 KD1 (human)): 2%; inhibition (AKT2 (human)): 0%; inhibition (PRKACA (mouse)): 0%
2 | 0% | 0% | 0% | 0% | 0% | 0% | 0% | 0% | 0% | 0% | 0% | 0% | 0% | 0% | 0% | 2% | 0% | 0% | 0% | 0% | C=CC(=O)c1ccc2ccccc2c1 | inhibition (SGK3 (human)): 0%; inhibition (PRKCQ (human)): 0%; inhibition (PDPK1 (human)): 0%; inhibition (PRKCI (human)): 0%; inhibition (RPS6KA1 KD1 (human)): 0%; inhibition (AKT2 (human)): 0%; inhibition (PRKACA (mouse)): 0%
3 | 15% | 2% | 5% | 3% | 9% | 0% | 0% | 0% | 7% | 3% | 44% | 0% | 50% | 66% | 0% | 0% | 79% | 2% | 3% | 0% | CC(C)[C@H](CO)Nc1nc(Nc2ccc(C(=O)O)c(Cl)c2)c2ncn(C(C)C)c2n1 | inhibition (SGK3 (human)): 3%; inhibition (PRKCQ (human)): 11%; inhibition (PDPK1 (human)): 0%; inhibition (PRKCI (human)): 0%; inhibition (RPS6KA1 KD1 (human)): 81%; inhibition (AKT2 (human)): 0%; inhibition (PRKACA (mouse)): 21%
4 | 0% | 0% | 0% | 0% | 0% | 4% | 0% | 0% | 0% | 0% | 0% | 0% | 0% | 0% | 0% | 0% | 0% | 0% | 0% | 0% | O=c1cc(N2CCOCC2)oc2c(-c3ccccc3)cccc12 | inhibition (SGK3 (human)): 0%; inhibition (PRKCQ (human)): 0%; inhibition (PDPK1 (human)): 0%; inhibition (PRKCI (human)): 0%; inhibition (RPS6KA1 KD1 (human)): 16%; inhibition (AKT2 (human)): 0%; inhibition (PRKACA (mouse)): 0%
5 | 6% | 0% | 6% | 4% | 40% | 0% | 0% | 0% | 0% | 11% | 0% | 0% | 0% | 0% | 0% | 12% | 0% | 0% | 1% | 9% | COc1nccc(-c2c(-c3ccc(F)cc3)ncn2[C@H]2CC[C@H](O)CC2)n1 | inhibition (SGK3 (human)): 0%; inhibition (PRKCQ (human)): 6%; inhibition (PDPK1 (human)): 0%; inhibition (PRKCI (human)): 0%; inhibition (RPS6KA1 KD1 (human)): 0%; inhibition (AKT2 (human)): 0%; inhibition (PRKACA (mouse)): 0%
6 | 14% | 0% | 0% | 0% | 0% | 3% | 6% | 0% | 16% | 1% | 0% | 0% | 0% | 0% | 0% | 0% | 0% | 0% | 0% | 0% | COc1ccc(Cl)cc1NC(=O)Nc1cc(C)nc2ccccc12 | inhibition (SGK3 (human)): 0%; inhibition (PRKCQ (human)): 0%; inhibition (PDPK1 (human)): 0%; inhibition (PRKCI (human)): 0%; inhibition (RPS6KA1 KD1 (human)): 0%; inhibition (AKT2 (human)): 0%; inhibition (PRKACA (mouse)): 5%
7 | 0% | 0% | 1% | 3% | 0% | 0% | 0% | 0% | 8% | 0% | 0% | 0% | 0% | 0% | 0% | 0% | 0% | 0% | 0% | 0% | Cc1ccc(NC(=O)c2cccc(N(C)C)c2)cc1NC(=O)c1ccc(O)cc1 | inhibition (SGK3 (human)): 0%; inhibition (PRKCQ (human)): 0%; inhibition (PDPK1 (human)): 0%; inhibition (PRKCI (human)): 0%; inhibition (RPS6KA1 KD1 (human)): 0%; inhibition (AKT2 (human)): 0%; inhibition (PRKACA (mouse)): 7%

Row | Compound | inhibition (AURKB (human)) | inhibition (PRKCE (human)) | inhibition (PRKCD (human)) | inhibition (AURKA (human)) | inhibition (STK32B (human)) | inhibition (RPS6KA5 KD1 (human)) | inhibition (DMPK (human)) | inhibition (AKT3 (human)) | inhibition (AURKC (human)) | inhibition (PRKX (human)) | inhibition (RPS6KA4 KD1 (human)) | inhibition (AKT1 (human)) | inhibition (RPS6KA6 KD1 (human)) | inhibition (RPS6KA3 KD1 (human)) | inhibition (SGK2 (human)) | inhibition (PKN1 (human)) | inhibition (RPS6KA2 KD1 (human)) | inhibition (PRKCH (human)) | inhibition (PRKACB (human)) | inhibition (PRKCG (human)) | further results
8 | C/C(O)=C(\C#N)C(=O)Nc1cc(Br)ccc1Br | 0% | 0% | 0% | 0% | 0% | 0% | 0% | 0% | 0% | 0% | 0% | 0% | 0% | 0% | 0% | 0% | 0% | 0% | 0% | 0% | inhibition (SGK3 (human)): 0%; inhibition (PRKCQ (human)): 0%; inhibition (PDPK1 (human)): 0%; inhibition (PRKCI (human)): 0%; inhibition (RPS6KA1 KD1 (human)): 0%; inhibition (AKT2 (human)): 0%; inhibition (PRKACA (mouse)): 7%
9 | O=C1NC(=O)c2c1c1c3ccccc3[nH]c1c1[nH]c3ccccc3c21 | 50% | 25% | 17% | 1% | 9% | 47% | 30% | 0% | 35% | 62% | 55% | 22% | 36% | 23% | 70% | 0% | 42% | 65% | 20% | 7% | inhibition (SGK3 (human)): 81%; inhibition (PRKCQ (human)): 45%; inhibition (PDPK1 (human)): 22%; inhibition (PRKCI (human)): 0%; inhibition (RPS6KA1 KD1 (human)): 51%; inhibition (AKT2 (human)): 0%; inhibition (PRKACA (mouse)): 27%
